Here are results for 1 molecule from ChEMBL document CHEMBL1158083, “Indole alkaloids from Cephalanceropsis gracilis” (J Nat Prod, 2006).

What all share (assay type): functional, cell-based
In assay [1] the test system is MCF7. Kind of assay: Cytotoxicity against human MCF7 cells by MTT assay. (Tetrazolium dyes change colour on reduction, which living cells bring about.)
Assay [2] has as its system NCI-H460. Kind of assay: Cytotoxicity against human NCI-H460 cells by MTT assay.
Assay [3] concerns SF-268. In words: Cytotoxicity against human SF-268 cells by MTT assay.

What is called IC50 is the concentration that inhibits the measured activity by half. Regarding `O=C1C(C2(C3(C4=Nc5ccccc5C4=O)Nc4ccccc4C3=O)Nc3ccccc3C2=O)=Nc2ccccc21` (stereo not drawn) [CEPHALINONE D], the IC50 is 7.57 µM in assay [1], 7.8 µM in assay [2] and 12.2 µM in assay [3].
